Literature values in patent publication US20100240626A1, “ANTIEMETIC-ORAL CONTRACEPTIVE COMBINATION” (Lupin Limited, priority 2007, published 2010).

Details: 0.75 mg of levonorgestrel administered

C#C[C@]1(O)CC[C@H]2[C@@H]3CCC4=CC(=O)CC[C@@H]4[C@H]3CC[C@@]21CC [levonorgestrel]
patients experiencing nausea: about 23.1%
patients experiencing vomiting: 5.6%
